# Assay results from patent publication US6579851B2, “Effects of glucagon-like peptide-1 (7-36) on antro-pyloro-duodenal motility” (Amylin Pharmaceuticals, Inc., priority 2000, dated 2003).
# Like-named read-outs stand apart in the source and are kept apart here.
# What was measured:
# [1] = for GLP-1 (plasma immunoreactivity, AUC over basal): 60 min period, mean ± SEM
# Description: Plasma glucose concentrations were measured using a glucose analyzer by the glucose oxidase method (YSI 1500 G; Schlag, Bergisch-Gladbach, Germany), with a coefficient of variation of <2%. Plasma insulin was measured by the Abbott Imx Microparticle Enzyme Immunoassay, with an average intraassay coefficient of variation of 5%. Plasma immunoreactivities of C-peptide, glucagon, and pancreatic polypeptide (PP) were analyzed by commercially available radioimmunoassay kits (Biermann, Bad Nauheim, Germany and Euradiagnostica, The Netherlands [PP]). […] The detection limit of the assay was 0.25 pmol/l. […] Intra- and inter-assay coefficients of variation were 3.4 and 10.4%, respectively. All values were expressed as mean±SEM. Plasma and motility parameters were separately analyzed for each 60 min period. Pyloric tone was calculated as change from basal, the latter being determined as mean pyloric tone during the total basal period before starting the experiments. Differences of plasma hormones and glucose compared to the basal state were calculated as integrated values over basal (area under the response curve; AUC). Basal levels of plasma parameters were determined as the mean of the two basal values just before the start of each experiment. All samples were first tested for normality by the Kolmogoroff-Smirnoff test. Differences between experimental sets for each parameter were analysed by two-way repeated measures analysis of variance employing intravenous infusion and duodenal perfusion as factors. When this analysis indicated differences, a Student-Newman-Keuls multicomparison test was performed. Differences were considered significant at P<0.05.
# Eleven healthy male volunteers, 23 to 28 years old and within 10% of ideal body weight, participated in the studies. None of them were taking medication, or suffering from gastrointestinal symptoms or systemic disease.
# All studies were performed after an overnight fast. Two experiments were performed, separated by at least 1 week on subjects lying in a semirecumbent position. An indwelling catheter was inserted into an antecubital vein for intravenous infusions. A second catheter was inserted into a dorsal vein of the contralateral hand in a retrograde fashion for sampling of arterialized blood (Schirra et al. Proc Assoc Am Physicians 109, 84-97 (1997)).
# On the interdigestive study day, 0.154 M saline was continuously perfused into the region of the lower duodenal flexure at a rate of 2.5 ml/min. […] On the postprandial study day, the same intravenous infusions were administered with an intraduodenal lipid perfusion at 2.5 kcal/min (2.5 ml/min, Lipofundin MCT 10%, Braun Co., Melsungen, Germany). This lipid preparation consisted of 50% medium-chain triglycerides (MCT) and 50% long-chain triglycerides (LCT, soya bean oil).
# Throughout the experiment, blood samples were taken immediately before the start of intravenous infusion, as well as in 10-min intervals thereafter. Blood was collected in ice-chilled EDTA tubes containing 1000 aprotinin (kallikrein inhibitory units/ml blood) and was centrifuged immediately. The plasma was stored at −20° C. until assayed.
# [2] = Plasma glucagon immunoreactivity during intravenous GLP-1 infusion; type: in vivo, human
# Description: All values were expressed as mean±SEM. […] Differences were considered significant at P<0.05.
# All studies were performed after an overnight fast.
# The plasma was stored at −20° C. until assayed.
smiles,measurement,setting,value
"CC[C@H](C)[C@H](NC(=O)[C@H](Cc1ccccc1)NC(=O)[C@H](CCC(=O)O)NC(=O)[C@H](CCCCN)NC(=O)[C@H](C)NC(=O)[C@H](C)NC(=O)[C@H](CCC(N)=O)NC(=O)CNC(=O)[C@H](CCC(=O)O)NC(=O)[C@H](CC(C)C)NC(=O)[C@H](Cc1ccc(O)cc1)NC(=O)[C@H](CO)NC(=O)[C@H](CO)NC(=O)[C@@H](NC(=O)[C@H](CC(=O)O)NC(=O)[C@H](CO)NC(=O)[C@@H](NC(=O)[C@H](Cc1ccccc1)NC(=O)[C@@H](NC(=O)CNC(=O)[C@H](CCC(=O)O)NC(=O)[C@H](C)NC(=O)[C@@H](N)Cc1c[nH]cn1)[C@@H](C)O)[C@@H](C)O)C(C)C)C(=O)N[C@@H](C)C(=O)N[C@@H](Cc1c[nH]c2ccccc12)C(=O)N[C@@H](CC(C)C)C(=O)N[C@H](C(=O)N[C@@H](CCCCN)C(=O)NCC(=O)N[C@@H](CCCNC(=N)N)C(N)=O)C(C)C [GLP-1, glucagon-like peptide-1(7-36)amide]","GLP-1 (plasma immunoreactivity, AUC over basal)","[1]; intraduodenal lipid 2.5 kcal/min, GLP-1 iv. high dose 1.2 pmol·kg−1·min−1",75.2 ± 3.9*‡∥ pmol/l · 60 min
same,"GLP-1 (plasma immunoreactivity, AUC over basal)","[1]; intraduodenal lipid 2.5 kcal/min, GLP-1 iv. low dose 0.4 pmol·kg−1·min−1",33.8 ± 2.9*∥ pmol/l · 60 min
same,"GLP-1 (plasma immunoreactivity, AUC over basal)","[1]; intraduodenal saline, GLP-1 iv. high dose 1.2 pmol·kg−1·min−1",67.4 ± 4.0 pmol/l · 60 min
same,"GLP-1 (plasma immunoreactivity, AUC over basal)","[1]; intraduodenal saline, GLP-1 iv. low dose 0.4 pmol·kg−1·min−1",25.2 ± 2.6 pmol/l · 60 min
same,Time to constant plasma levels after start of infusion,"[1]; iv. infusion, duodenal saline and lipid",≤ 20 min
same,Glucagon (AUC over basal),"[2]; intraduodenal lipid, high dose 1.2 pmol·kg−1·min−1 iv.",48.0 ± 33.8*‡∥ pg/ml · 60 min
same,Glucagon (AUC over basal),"[2]; intraduodenal lipid, low dose 0.4 pmol·kg−1·min−1 iv.",99.7 ± 25.1*∥ pg/ml · 60 min
same,Glucagon (AUC over basal),"[2]; intraduodenal saline, high dose 1.2 pmol·kg−1·min−1 iv.",−68.6 ± 28.9 pg/ml · 60 min
same,Glucagon (AUC over basal),"[2]; intraduodenal saline, low dose 0.4 pmol·kg−1·min−1 iv.",−59.0 ± 37.1 pg/ml · 60 min
